Measurements from publication PMC9699072 (Molecules, 2022).
Structures can show the parent of a compound that is named as a salt.

Legend:
Format in all cases: biochemical
[1] = ABTS radical cation scavenging (decolorization) assay; conditions: mean ± SEM, n = 3; for IC50: 1 h, read-out: ABTS IC50 (compound concentration required for 50% reduction of the ABTS radical-cation) (converted); for ABTS TEAC (Trolox equivalent antioxidant capacity): 1 h incubation, relative to Trolox
Protocol: The ABTS assay is based on the direct quenching of the ABTS cation radical (ABTS^•+) by antioxidants. The assay is carried out by spectrophotometric determination of a decrease in absorbance of a stable dark green ABTS^•+ solution after its interaction with an antioxidant compound [56]. The measurements were performed as previously described in detail. The results are expressed as TEAC values (Trolox equivalent antioxidant capacity) and IC50 values (compound concentration required for 50% reduction of the ABTS radical).
Radical scavenging activity of the compounds was assessed using the ABTS radical cation (ABTS^•+) decolorization assay with some modifications. ABTS (2,2′-azinobis-(3-ethylbenzothiazoline-6-sulfonic acid)) was purchased from Tokyo Chemical Industry Co., Ltd. (Tokyo, Japan), and potassium persulfate (dipotassium peroxodisulfate), Trolox (6-hydroxy-2,5,7,8-tetramethylchroman-2-carboxylic acid), and HPLC-grade ethanol and DMSO were obtained from Sigma-Aldrich (Saint Louis, MO, USA). Aqueous solutions were prepared using deionized water. All test compounds were dissolved in DMSO.
The solution of cation radical ABTS^•+ was produced by incubation of an aqueous solution of 7 mM ABTS and 2.45 mM potassium persulfate solution in equal quantities for 12–16 h at room temperature in the dark. Radical scavenging capacity of the compounds was analyzed by mixing 10 μL of compound with 240 μL of ABTS^•+ working solution in ethanol (100 μM final concentration). Data were given for 1 h of incubation of compounds with ABTS^•+. The reduction in absorbance was measured spectrophotometrically at 734 nm using an xMark microplate UV/VIS microplate spectrophotometer (Bio-Rad, Hercules, CA, USA).
Ethanol blanks were run in each assay. Values were obtained from three replicates of each sample and three independent experiments.
Standard antioxidant Trolox was used as a reference compound. Antioxidant capacity as Trolox equivalent (TEAC) values was determined as the ratio between the slopes obtained from the linear correlation of the ABTS radical absorbance with the concentrations of tested compounds and Trolox. Quercetin was used as a positive control. For the test compounds that reduced ABTS^•+ absorbance by more than 60% at 100 µM, we also determined the IC50 values (the compound concentration required for a 50% reduction of the ABTS radical). The compounds were tested in the concentration range of 0.5–400 µM.

[2] = molecular target: T1, equine serum butyrylcholinesterase (BChE) (Equus caballus, UniProt P81908); assay: Inhibition of BChE (Ellman's colorimetric assay); conditions: ± SEM, n = 3, 10 min incubation 25 °C
T1 construct: equine serum butyrylcholinesterase (BChE, EC 3.1.1.8); purchased Sigma-Aldrich (Saint Louis, MO, USA); host or cells: equine serum
Source text: Given the available literature data on the ability of pyrazole derivatives to inhibit acetylcholinesterase (AChE) and human carboxylesterase-1 (CES), we performed an investigation of the esterase profile for new compounds 1a–j and 4a–j, including an evaluation of their inhibitory effect on the standard enzymes set: human erythrocyte AChE, equine serum butyrylcholinesterase (BChE), and porcine liver CES (Table 2). The applicability of this set of enzymes was shown by us earlier.
Human erythrocyte acetylcholinesterase (AChE, EC 3.1.1.7), equine serum butyrylcholinesterase (BChE, EC 3.1.1.8), porcine liver carboxylesterase (CES, EC 3.1.1.1), acetylthiocholine iodide (ATCh), butyrylthiocholine iodide (BTCh), 4-nitrophenol acetate (4-NPA), and 5,5′-dithio-bis-(2-nitrobenzoic acid) (DTNB) were purchased from Sigma-Aldrich (Saint Louis, MO, USA).
All the kinetic experiments were performed under standard conditions, according to the protocol of IPAC RAS for a reversible inhibitors study.
Ellman’s colorimetric assay was used to measure AChE and BChE activity in 0.1 M K/Na phosphate buffer at pH 7.5, 25 °C [86]. Final concentrations of reactants were 0.33 mM DTNB, 0.02 unit/mL of AChE or BChE, and 1 mM of substrate (ATCh or BTCh, respectively). Reagent blanks consisted of reaction mixtures without enzyme to assess non-enzymatic hydrolysis of substrates. Porcine liver CES activity was assessed colorimetrically in 0.1 M K/Na phosphate buffer with pH 8.0 at 25 °C, by measuring the absorbance of 4-nitrophenol at 405 nm. Final enzyme and substrate (4-NPA) concentrations were 0.02 unit/mL and 1 mM, respectively. Reagent blanks included all constituents except enzyme.
Test compounds were dissolved in DMSO. Reaction mixtures contained a final DMSO concentration of 2% (v/v). Enzyme inhibition was first assessed at a single concentration of 20 µM for each compound after a 10 min incubation at 25 °C in three separate experiments. Compounds inhibiting the enzyme by more than 30% were then selected for determination of the IC50 (inhibitor concentration resulting in 50% inhibition of control enzyme activity). […] Substrate was then added, and residual enzyme activity relative to an inhibitor-free control was measured using a FLUOStar Optima microplate reader (LabTech, Ortenberg, Germany).

[3] = FRAP (ferric reducing antioxidant power) assay; conditions: for FRAP TE (Trolox equivalent): mean ± SEM, n = 3, 1 h, 37 °C, pH 3.6
Protocol: The FRAP (ferric reducing antioxidant power) assay measures the ability of antioxidants to reduce the ferric 2,4,6-tripyridyl-s-triazine complex [Fe(TPTZ)2]^3+ to the intensely blue ferrous complex [Fe(TPTZ)2]^2+ in an acidic medium. The measurements were performed as previously described in detail. The results are expressed as TE (Trolox equivalents).
The FRAP (ferric reducing antioxidant power) assay measures the ability of antioxidants to reduce the ferric 2,4,6-tripyridyl-s-triazine complex [Fe (TPTZ)2]^3+ to the intensely blue ferrous complex [Fe (TPTZ)2]^2+ (λ = 593 nm) in acidic medium. 2,4,6-Tris(pyridin-2-yl)-1,3,5-triazine (TPTZ), FeCl3·6H2O, Trolox, quercetin and DMSO were obtained from Sigma-Aldrich Chemical Co. (St. Louis, MO, USA). The FRAP reagent contained 2.5 mL of 10 mM TPTZ solution in 40 mM HCl, 2.5 mL of 20 mM FeCl3·6H2O water solution, and 25 mL of 0.3 M acetate buffer (pH 3.6). Aliquots of 10 µL of the test compound solution in DMSO (0.5 mM) were mixed with 240 µL of FRAP reagent, and the absorbance of the mixture was measured spectrophotometrically (FLUOStar OPTIMA microplate spectrophotometer (BMG Labtech, Ortenberg, Germany)) at 600 nm after 1 h incubation at 37 °C against a blank. Trolox was used as a reference compound. Quercetin was used as a positive control. A calibration curve with linear formula y = 0.03x (R^2 = 0.998, p < 0.0001) was prepared for Trolox solutions in DMSO at a range of 2.5–100 µM, and the results are expressed as Trolox equivalents (TE), the values calculated as the ratio of the concentrations of Trolox and the test compound, resulting in the same effect.

T1 sequence (P81908 whole entry): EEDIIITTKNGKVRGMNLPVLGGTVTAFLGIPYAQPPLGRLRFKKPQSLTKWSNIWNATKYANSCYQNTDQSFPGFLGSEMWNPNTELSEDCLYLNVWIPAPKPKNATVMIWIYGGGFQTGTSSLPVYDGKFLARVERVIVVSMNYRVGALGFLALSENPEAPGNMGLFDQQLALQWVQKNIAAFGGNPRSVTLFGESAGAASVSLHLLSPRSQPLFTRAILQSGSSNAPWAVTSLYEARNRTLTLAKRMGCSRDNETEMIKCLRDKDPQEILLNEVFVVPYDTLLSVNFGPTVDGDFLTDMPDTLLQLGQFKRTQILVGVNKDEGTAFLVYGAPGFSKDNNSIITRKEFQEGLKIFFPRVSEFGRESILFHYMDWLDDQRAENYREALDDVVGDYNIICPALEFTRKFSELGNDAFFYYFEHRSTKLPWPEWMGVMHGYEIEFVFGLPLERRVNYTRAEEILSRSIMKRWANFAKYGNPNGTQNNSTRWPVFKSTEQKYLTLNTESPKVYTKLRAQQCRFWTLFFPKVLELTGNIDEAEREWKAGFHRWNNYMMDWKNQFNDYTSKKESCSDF

Cl.Nc1c(C(F)(F)F)nn(-c2ccccc2)c1O [4a, 4-Amino-3-(trifluoromethyl)-1-phenyl-1H-pyrazol-5-ol hydrochloride]
IC50 [1]: 27.2 µM | ABTS TEAC (Trolox equivalent antioxidant capacity) [1]: 0.75 ± 0.04 TEAC | inhibition at 20 µM [2]: 6.9 ± 1.1% | FRAP TE (Trolox equivalent) [3]: 0.89 ± 0.05 TE

Cl.Nc1c(C(F)(F)F)n[nH]c1O [4e, 4-Amino-3-(trifluoromethyl)-1H-pyrazol-5-ol hydrochloride]
IC50 [1]: 21.2 µM | ABTS TEAC (Trolox equivalent antioxidant capacity) [1]: 0.92 ± 0.04 TEAC | inhibition at 20 µM [2]: 5.6 ± 1.5% | FRAP TE (Trolox equivalent) [3]: 1.02 ± 0.02 TE

O=C1NN=C(C(F)(F)C(F)(F)F)/C1=N/O [1g]
ABTS TEAC (Trolox equivalent antioxidant capacity) [1]: 0.13 ± 0.04 (n.d.) TEAC | FRAP TE (Trolox equivalent) [3]: 0.13 ± 0.01 TE

Oc1cc(C(F)(F)F)nn1-c1ccccc1 [CF3-EDA, 3-trifluoromethyl-1-phenylpyrazol-5-ol, reference compound]
IC50 [1]: 21.4 µM | ABTS TEAC (Trolox equivalent antioxidant capacity) [1]: 0.95 ± 0.04 TEAC | Ferric reducing activity lower than that of EDA ([3]; FRAP test, relative to EDA): 20% | FRAP TE (Trolox equivalent) [3]: 0.63 ± 0.03 TE

Cl.Nc1c(C(F)(F)C(F)(F)C(F)(F)F)n[nH]c1O.O [4h, 4-Amino-3-(heptafluoropropyl)-1H-pyrazol-5-ol hydrate hydrochloride]
IC50 [1]: 24.8 µM | ABTS TEAC (Trolox equivalent antioxidant capacity) [1]: 0.78 ± 0.04 TEAC | inhibition at 20 µM [2]: 3.4 ± 0.9% | FRAP TE (Trolox equivalent) [3]: 1.03 ± 0.04 TE

Cl.Nc1c(C(F)(F)C(F)(F)F)n[nH]c1O.O [4g, 4-Amino-3-(pentafluoroethyl)-1H-pyrazol-5-ol hydrate hydrochloride]
IC50 [1]: 25.7 µM | ABTS TEAC (Trolox equivalent antioxidant capacity) [1]: 0.73 ± 0.03 TEAC | inhibition at 20 µM [2]: 8.9 ± 1.4% | FRAP TE (Trolox equivalent) [3]: 0.88 ± 0.04 TE

CC1=NNC(=O)/C1=N\O [1j]
ABTS TEAC (Trolox equivalent antioxidant capacity) [1]: 0.2 ± 0.03 (n.d.) TEAC | inhibition at 20 µM [2]: 3.8 ± 1.3% | FRAP TE (Trolox equivalent) [3]: 0.09 ± 0.01 TE

O=C1NN=C(C(F)(F)F)/C1=N/O [1e]
ABTS TEAC (Trolox equivalent antioxidant capacity) [1]: 0.23 ± 0.01 (n.d.) TEAC | FRAP TE (Trolox equivalent) [3]: 0.07 ± 0.01 TE

Cc1nn(-c2ccccc2)c(O)c1N.Cl.O [4d, 4-Amino-3-methyl-1-phenyl-1H-pyrazol-5-ol hydrochloride hydrate]
IC50 [1]: 23.3 µM | ABTS TEAC (Trolox equivalent antioxidant capacity) [1]: 0.93 ± 0.03 TEAC | ABTS TEAC (Trolox equivalent antioxidant capacity) ([1]; listed as APH): 0.93 TEAC | inhibition at 20 µM [2]: 5.1 ± 1.3% | FRAP TE (Trolox equivalent) [3]: 0.98 ± 0.08 TE | FRAP TE (Trolox equivalent) ([3]; listed as APH): 0.98 TE

Cl.Nc1c(C(F)(F)C(F)(F)F)nn(-c2ccccc2)c1O.O [4b, 4-Amino-3-(pentafluoroethyl)-1-phenyl-1H-pyrazol-5-ol hydrate hydrochloride]
IC50 [1]: 34.1 µM | ABTS TEAC (Trolox equivalent antioxidant capacity) [1]: 0.6 ± 0.03 TEAC | inhibition at 20 µM [2]: 12.8 ± 1.5% | FRAP TE (Trolox equivalent) [3]: 0.75 ± 0.07 TE

3-methyl-1-phenyl-2-pyrazolin-5-one [EDA, reference compound]
IC50 [1]: 21.4 µM | ABTS TEAC (Trolox equivalent antioxidant capacity) [1]: 0.96 ± 0.04 TEAC | BChE % inhibition at 20 μM [2]: 4.6 ± 0.2% | FRAP TE (Trolox equivalent) [3]: 0.80 ± 0.01 TE

Nc1c(C(F)(F)C(F)(F)C(F)(F)C(F)(F)F)nn(-c2ccccc2)c1O [4c, 5-Hydroxy-1-phenyl-3-(nonafluorobuthyl)-1H-pyrazol-4-ammonium hydrochloride]
IC50 [1]: 23.4 µM | ABTS TEAC (Trolox equivalent antioxidant capacity) [1]: 0.85 ± 0.04 TEAC | inhibition at 20 µM [2]: 10.3 ± 1.2% | FRAP TE (Trolox equivalent) [3]: 0.98 ±0.05 TE

Cc1n[nH]c(O)c1N.Cl [4j, 4-Amino-3-methyl-1H-pyrazol-5-ol hydrochloride]
IC50 [1]: 20.1 µM | ABTS TEAC (Trolox equivalent antioxidant capacity) [1]: 0.95 ± 0.04 TEAC | inhibition at 20 µM [2]: 13.9 ± 1.6% | FRAP TE (Trolox equivalent) [3]: 1.04 ± 0.04 TE

Cl.Nc1c(C(F)(F)C(F)(F)C(F)(F)C(F)(F)F)n[nH]c1O.O [4i, 4-Amino-3-(nonafluorobutyl)-1H-pyrazol-5-ol hydrate hydrochloride]
IC50 [1]: 40.8 µM | ABTS TEAC (Trolox equivalent antioxidant capacity) [1]: 0.45 ± 0.02 TEAC | FRAP TE (Trolox equivalent) [3]: 0.75 ± 0.05 TE
